The text below walks through data of paper PMC6393386 (Frontiers in Pharmacology, 2019).

Assay [1] deals with T1, Smo (smoothened), wild type hSmo (Homo sapiens, UniProt Q99835).
T1 construct: wild type hSmo expressed in HEK293 cells
The assay can be described thus: BODIPY-cyclopamine competition in hSmo-transfected HEK293 cells (microscopy and flow cytometry). The format is cell-based. (In general: A flow cytometer gives signals particle by particle.)

Assay [2] concerns the target T1, Smo (smoothened), wild type hSmo. Briefly: BODIPY-cyclopamine competition in hSmo-transfected HEK293 cells (positive control). The format is cell-based.

Each structure is given as a SMILES string.

T1 sequence (Q99835 28-787): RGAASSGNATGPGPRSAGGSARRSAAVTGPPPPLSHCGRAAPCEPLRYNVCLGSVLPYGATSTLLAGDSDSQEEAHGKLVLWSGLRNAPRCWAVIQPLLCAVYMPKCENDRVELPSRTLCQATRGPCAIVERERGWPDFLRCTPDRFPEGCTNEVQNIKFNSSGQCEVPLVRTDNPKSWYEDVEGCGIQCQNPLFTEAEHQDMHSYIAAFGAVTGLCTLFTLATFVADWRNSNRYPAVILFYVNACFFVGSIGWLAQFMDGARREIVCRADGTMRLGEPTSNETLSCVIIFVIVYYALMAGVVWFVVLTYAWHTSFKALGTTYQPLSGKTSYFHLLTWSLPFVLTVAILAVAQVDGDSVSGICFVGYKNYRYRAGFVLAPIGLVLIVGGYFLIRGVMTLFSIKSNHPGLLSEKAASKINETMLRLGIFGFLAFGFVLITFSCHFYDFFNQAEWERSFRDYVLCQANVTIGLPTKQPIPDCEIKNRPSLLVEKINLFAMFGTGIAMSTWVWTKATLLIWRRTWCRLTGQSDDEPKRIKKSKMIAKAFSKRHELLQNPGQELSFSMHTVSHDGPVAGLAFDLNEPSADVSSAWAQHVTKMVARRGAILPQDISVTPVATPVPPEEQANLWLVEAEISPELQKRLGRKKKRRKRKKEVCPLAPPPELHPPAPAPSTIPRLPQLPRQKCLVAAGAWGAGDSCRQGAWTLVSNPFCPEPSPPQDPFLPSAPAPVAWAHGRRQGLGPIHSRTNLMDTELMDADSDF

Take `Cc1c(-c2ccnn2C)nnc(N2CCC(NC(=O)c3ccc(F)cc3C(F)(F)F)CC2)c1C` [L-4]: in assay [1], the “BODIPY-cyclopamine competition in hSmo-transfected HEK293 cells (microscopy and)” value is “there was a dose-dependent replacement of BODIPY-cyclopamine by L-4”.
Consider `CC1=C2C[C@H]3[C@@H](CC=C4C[C@@H](O)CC[C@@]43C)[C@@H]2CC[C@]12O[C@@H]1C[C@H](C)CN[C@H]1[C@H]2C` [cyclopamine], for which the “BODIPY-cyclopamine competition in hSmo-transfected HEK293 cells (positive contro)” value in assay [2] was “It was similar to the positive control, cyclopamine”.
